The text below walks through data of publication PMC10155618 (Beilstein Journal of Organic Chemistry, 2023).

Where only a bound is given, the exact number is not on record here.

In assay [1] the test system is poly rA–poly rU (RNA, polymer) A/U. As to the kind of experiment: UV thermal melting, 260 nm. The conditions noted are these: Na+ (sodium cacodylate, Ic = 0.05 mol dm^-3); Na cacodylate pH 7.0; negligible stabilisation; error ±0.5 °C; per base.
For assay [2], the system named is poly dAdT–poly dAdT (DNA, polymer) AT. The experiment in a line: fluorimetric titration, Scatchard/Global Fit. The following applies: Na+ (sodium cacodylate, Ic = 0.05 mol dm^-3); Na cacodylate pH 7.0; compound 1–2 × 10^-6 M; n fixed 0.2; polynucleotide as phosphates; per base.
Assay [3] has as its system poly dGdC–poly dGdC (DNA, polymer) GC. As to the kind of experiment: fluorimetric titration, Scatchard/Global Fit. The conditions noted are these: Na+ (sodium cacodylate, Ic = 0.05 mol dm^-3); Na cacodylate pH 7.0; compound 1–2 × 10^-6 M; n fixed 0.2; polynucleotide as phosphates; per base.
Assay [4] deals with T1, human DPP III (dipeptidyl peptidase III, DPPIII), inactive mutant E451A (Homo sapiens, UniProt Q9NY33, E451A).
T1 construct: gene DPP3; recombinant, heterologous expression in Escherichia coli, purified according to Spoljaric et al; mono-zinc metalloexopeptidase
T1 sequence (Q9NY33 2-737 E451A): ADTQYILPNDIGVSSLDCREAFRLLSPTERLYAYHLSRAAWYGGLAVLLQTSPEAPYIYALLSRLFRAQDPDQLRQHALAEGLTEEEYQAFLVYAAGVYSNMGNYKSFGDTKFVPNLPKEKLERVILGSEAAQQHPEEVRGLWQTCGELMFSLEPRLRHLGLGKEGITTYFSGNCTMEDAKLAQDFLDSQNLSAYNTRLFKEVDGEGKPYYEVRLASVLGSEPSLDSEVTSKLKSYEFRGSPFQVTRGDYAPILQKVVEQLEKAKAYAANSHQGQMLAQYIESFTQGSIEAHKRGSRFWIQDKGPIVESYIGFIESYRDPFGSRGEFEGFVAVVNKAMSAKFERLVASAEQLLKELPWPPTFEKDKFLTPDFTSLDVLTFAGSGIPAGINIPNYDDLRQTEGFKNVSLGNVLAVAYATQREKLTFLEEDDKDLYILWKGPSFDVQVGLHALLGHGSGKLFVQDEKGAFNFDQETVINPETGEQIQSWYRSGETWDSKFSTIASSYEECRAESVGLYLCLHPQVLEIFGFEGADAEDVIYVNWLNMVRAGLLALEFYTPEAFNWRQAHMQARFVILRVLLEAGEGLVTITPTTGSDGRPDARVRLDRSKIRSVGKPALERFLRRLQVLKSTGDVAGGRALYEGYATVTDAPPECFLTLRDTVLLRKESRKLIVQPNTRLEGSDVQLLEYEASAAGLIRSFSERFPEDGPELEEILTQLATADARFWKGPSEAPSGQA
The experiment in a line: isothermal titration calorimetry, one set of sites, N fixed to […]. It is filed as binding. The conditions noted are these: read-out: log Ka (converted). A general note: Isothermal titration calorimetry measures the heat released or taken up as one component is titrated into another.

Assay [5] concerns poly rA–poly rU (RNA, polymer) A/U. As to the kind of experiment: fluorimetric titration, Scatchard/Global Fit. The conditions noted are these: Na+ (sodium cacodylate, Ic = 0.05 mol dm^-3); Na cacodylate pH 7.0; compound 1–2 × 10^-6 M; n fixed 0.2; polynucleotide as phosphates; per base.

In general, ΔTm refers to the shift of the melting midpoint relative to a reference. Take `COC(=O)[C@H](Cc1ccc2c(c1)c(C)nc1ccccc12)NC(=O)c1ccc2ccc3cccc4ccc1c2c34`: in assay [1], the ΔTm was < 0.5 °C.
On to `COC(=O)[C@H](Cc1ccc2c(c1)c(C)nc1ccccc12)NC(=O)CCCc1ccc2ccc3cccc4ccc1c2c34` [Phen-Py-1], for which the “log Ka” value in assay [2] turned out to be 5.97; in assay [3] it was 6.87; in assay [5], 7.07. Besides, in assay [4], the Kd was 3.39 µM. The ΔTm in assay [1] is < 0.5 °C.
